Here are results for five compounds from ChEMBL document CHEMBL3612044, “Phosphate Chemical Probes Designed for Location Specific Inhibition of Intracellular Carbonic Anhydrases” (J Med Chem, 2015).

In this assay the target is Carbonic anhydrase 9 (Homo sapiens, UniProt Q16790). The experiment in a line: Inhibition of human carbonic anhydrase-9 by stopped-flow CO2 hydration assay.

The term Ki denotes a measure of affinity in units of concentration, obtained from inhibition or displacement. Lower therefore signals a stronger hold on the target. `NS(=O)(=O)[C@@H]1O[C@H](COP(=O)(O)O)[C@@H](O)[C@H](O)[C@H]1O` gave a Ki of 213 nM. This lies in the sub-micromolar range.
The value for `CC(=O)O[C@@H]1[C@@H](OC(C)=O)[C@H](n2cc(-c3ccc(S(N)(=O)=O)cc3)nn2)O[C@H](COP2(=O)OCc3ccccc3O2)[C@H]1OC(C)=O` (stereo not given in full) was 84.3 nM; that for `NS(=O)(=O)c1ccc(-c2cn([C@@H]3O[C@H](COP(=O)(O)O)[C@@H](O)[C@H](O)[C@H]3O)nn2)cc1` was 248 nM; that for `CC(=O)O[C@@H]1[C@@H](OC(C)=O)[C@H](n2cc(-c3ccc(S(N)(=O)=O)cc3)nn2)O[C@H](COP(=O)(OCCSC(=O)C(C)(C)C)OCCSC(=O)C(C)(C)C)[C@H]1OC(C)=O` was 135 nM.
Consider `CC(=O)O[C@@H]1[C@@H](OC(C)=O)[C@H](S(N)(=O)=O)O[C@H](COP(=O)(OCCSC(=O)C(C)(C)C)OCCSC(=O)C(C)(C)C)[C@H]1OC(C)=O`, for which the Ki is 154 nM.
